pKa data for one compound are collected here from patent US20260284080A1 (priority 2025, published 2026).

The structures appear in SMILES notation.

A short description of this data set: physchem. It counts as physicochemical. The source says: Abiraterone acetate is a white to off-white, non-hygroscopic, crystalline powder.

As to `CC(=O)O[C@H]1CC[C@@]2(C)C(=CC[C@@H]3[C@@H]2CC[C@]2(C)C(c4cccnc4)=CC[C@@H]32)C1` [abiraterone acetate, (3B)-17-(3-pyridinyl) androsta-5,16-dien-3-yl acetate], the pKa (usually the negative logarithm of the acid dissociation constant) was found to be 5.19.
